Test results taken from EP4678638A1, “NEW E3 UBIQUITIN LIGASE LIGAND, PROTEIN DEGRADATION AGENT AND USE THEREOF” (priority 2023, dated 2024).
pIC50: −log10 of the molar value.

How the values were obtained:
H1975 = experiment: CCK-8 proliferation, NCI-H1975 (H1975); type: cell-based, Human; details: Homo sapiens, NCI-H1975; CCK-8; 96 hours; read-out: Inhibitory activity (IC50) on tumor cell proliferation, H1975
Outline: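 Tumor cells were cultured at 37°C with 5% CO2, seeded, and after 24h treated with compounds at 10 concentrations starting at 10µM (5-fold serial dilutions).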

EGFR = experiment: Western blot degradation of EGFR (H1975 Cell); type: cell-based, Human; details: Table D2
Protocol: Conventional Western blot assay was performed to evaluate the effects of the compounds of the present disclosure on the expression of target proteins in cells.
(1) Cell Seeding and Protein Harvesting: The selected cells were processed according to the cell seeding procedure and protein harvesting procedure in Table III-2. Table III-2 Cell Seeding and Protein Harvesting Procedures
(2) To the collected supernatant, 5X SDS sample loading buffer was added, followed by denaturation at 95°C for 5 minutes. The denatured samples were then separated by SDS-PAGE electrophoresis on a polyacrylamide gel. Proteins were transferred to a nitrocellulose membrane (0.45 µm NC membrane), blocked with blocking buffer at room temperature for 1 hour, and subjected to antibody incubation and development procedures according to the antibody manufacturer's instructions (Cell Signaling Technology).
Half-Maximal Degradation Concentration value (the drug concentration required for degrading proteins by 50%, abbreviated as DC50) reads method: comparing the grayscale values of Western blot bands from drug-treated samples with those from blank DMSO-treated controls, and identifying the drug concentration range at which the grayscale value is half that of the DMSO-treated control bands.
DC50 values can be calculated using ImageJ software to measure grayscale values of Western blot bands from drug-treated samples. The concentration-response curve is fitted to estimate the drug concentration corresponding to half the grayscale value.
Target protein remaining (%) refers to the percentage of target protein remaining in hPBMC cells after treatment with protein degrader compounds.
Calculation method for target protein remaining (%): Use ImageJ software to measure grayscale values of Western blot bands from drug (protein degrader)-treated samples. The grayscale value of drug-treated bands is divided by that of internal control protein bands, and the resulting quotient is normalized to obtain the relative percentage of remaining target protein after protein degrader treatment.
Target protein degradation rate (%) = 100% - target protein remaining (%).

| Structure (SMILES) | pIC50 (H1975) | Degradation of substrate protein EGFR (substrate protein remaining %) (EGFR) |
| --- | --- | --- |
| O=C1CCN(c2cccc(CN3C[C@@H]4C[C@H]3CN4c3ccc(-c4cc(F)c5c(c4)C(=O)N(C(C(=O)Nc4nccs4)c4ncn6c4CCC6)C5)cc3)c2)C(=O)N1 (stereo partly drawn) [GT-05117, 2-(6,7-dihydro-5H-pyrrolo[1,2-c]imidazol-1-yl)-2-(6-(4-((1S,4S)-5-(3-(2,4-dioxotetrahydropyrimidin-1(2H)-yl)benzyl)-2,5-diazabicyclo[2.2.1]heptan-2-yl)phenyl)-4-fluoro-1-oxoisoindolin-2-yl)-N-(thiazol-2-yl)acetamide] | 7.30 to 8.00 | A (A is defined as 0% ≤ substrate protein remaining % ≤ 80%) |
| O=C1CCC(Nc2cccc(CN3C[C@@H]4C[C@H]3CN4c3ccc(-c4cc(F)c5c(c4)C(=O)N(C(C(=O)Nc4nccs4)c4ncn6c4CCC6)C5)cc3)c2)C(=O)N1 (stereo partly drawn) [GT-05118, 2-(6,7-dihydro-5H-pyrrolo[1,2-c]imidazol-1-yl)-2-(6-(4-((1S,4S)-5-(3-((2,6-dioxopiperidin-3-yl)amino)benzyl)-2,5-diazabicyclo[2.2.1]heptan-2-yl)phenyl)-4-fluoro-1-oxoisoindolin-2-yl)-N-(thiazol-2-yl)acetamide] | 7.00 to 7.30 | A (A is defined as 0% ≤ substrate protein remaining % ≤ 80%) |
| O=C1CCC(Nc2cccc(CN3CCN(C4CCN(c5ccc(-c6cc(F)c7c(c6)C(=O)N(C(C(=O)Nc6nccs6)c6ncn8c6CCC8)C7)cc5)CC4(F)F)CC3)c2)C(=O)N1 (stereo not shown) [GT-06321, 2-(6,7-dihydro-5H-pyrrolo[1,2-c]imidazol-1-yl)-2-(6-(4-(4-(4-(3-((2,6-dioxopiperidin-3-yl)amino)benzyl)piperazin-1-yl)-3,3-difluoropiperidin-1-yl)phenyl)-4-fluoro-1-oxoisoindolin-2-yl)-N-(thiazol-2-yl)acetamide] | 7.30 to 8.00 | A (A is defined as 0% ≤ substrate protein remaining % ≤ 80%) |
| O=C1CCC(c2ccc(CN3CCN(C4CCN(c5ccc(-c6cc(F)c7c(c6)C(=O)N(C(C(=O)Nc6nccs6)c6ncn8c6CCC8)C7)cc5)CC4)CC3)cc2)C(=O)N1 (stereo not shown) [GT-06243, 2-(6,7-dihydro-5H-pyrrolo[1,2-c]imidazol-1-yl)-2-(6-(4-(4-(4-(4-(2,6-dioxopiperidin-3-yl)benzyl)piperazin-1-yl)piperidin-1-yl)phenyl)-4-fluoro-1-oxoisoindolin-2-yl)-N-(thiazol-2-yl)acetamide] | 8.00 to 9.00 | A (A is defined as 0% ≤ substrate protein remaining % ≤ 80%) |
| O=C1CCC(c2ccc(CN3CCN(c4ccc(-c5cc(F)c6c(c5)C(=O)N(C(C(=O)Nc5nccs5)c5ncn7c5CCC7)C6)cc4)CC3)cc2)C(=O)N1 (stereo not shown) [GT-06163, 2-(6,7-dihydro-5H-pyrrolo[1,2-c]imidazol-1-yl)-2-(6-(4-(4-(4-(2,6-dioxopiperidin-3-yl)benzyl)piperazin-1-yl)phenyl)-4-fluoro-1-oxoisoindolin-2-yl)-N-(thiazol-2-yl)acetamide] | 8.00 to 9.00 | A (A is defined as 0% ≤ substrate protein remaining % ≤ 80%) |
| CN(Cc1cncc(C2CCC(=O)NC2=O)c1)C1CCN(c2ccc(-c3cc(F)c4c(c3)C(=O)N(C(C(=O)Nc3nccs3)c3ncn5c3CCC5)C4)cc2)CC1 (stereo not shown) [GT-07393, 2-(6,7-dihydro-5H-pyrrolo[1,2-c]imidazol-1-yl)-2-(6-(4-(4-(((5-(2,6-dioxopiperidin-3-yl)pyridin-3-yl)methyl)(methyl)amino)piperidin-1-yl)phenyl)-4-fluoro-1-oxoisoindolin-2-yl)-N-(thiazol-2-yl)acetamide] | 8.00 to 9.00 | A (A is defined as 0% ≤ substrate protein remaining % ≤ 80%) |
| O=C1CCC(c2ccc(CN3CCN(C4CCN(c5ccc(-c6cc(F)c7c(c6)C(=O)N(C(C(=O)Nc6nccs6)c6ncn8c6CCC8)C7)cc5)CC4(F)F)CC3)cc2)C(=O)N1 (stereo not shown) [GT-06317, 2-(6,7-dihydro-5H-pyrrolo[1,2-c]imidazol-1-yl)-2-(6-(4-(4-(4-(4-(2,6-dioxopiperidin-3-yl)benzyl)piperazin-1-yl)-3,3-difluoropiperidin-1-yl)phenyl)-4-fluoro-1-oxoisoindolin-2-yl)-N-(thiazol-2-yl)acetamide] | 7.30 to 8.00 | A (A is defined as 0% ≤ substrate protein remaining % ≤ 80%) |

Further lines, with some results ahead:

| pIC50 (H1975) | Structure (SMILES) | Degradation of substrate protein EGFR (substrate protein remaining %) (EGFR) |
| --- | --- | --- |
| 8.00 to 9.00 | O=C1CCN(c2ccc(CN3CCN(c4ccc(-c5cc(F)c6c(c5)C(=O)N(C(C(=O)Nc5nccs5)c5ncn7c5CCC7)C6)cc4)CC3)nc2)C(=O)N1 (stereo not shown) [GT-06229, 2-(6,7-dihydro-5H-pyrrolo[1,2-c]imidazol-1-yl)-2-(6-(4-(4-((5-(2,4-dioxotetrahydropyrimidin-1(2H)-yl)pyridin-2-yl)methyl)piperazin-1-yl)phenyl)-4-fluoro-1-oxoisoindolin-2-yl)-N-(thiazol-2-yl)acetamide] | A (A is defined as 0% ≤ substrate protein remaining % ≤ 80%) |
| 8.00 to 9.00 | O=C1CCN(c2ccc(CN3CCC(N4CCN(c5ccc(-c6cc(F)c7c(c6)C(=O)N(C(C(=O)Nc6nccs6)c6ncn8c6CCC8)C7)cc5)CC4)CC3)nc2)C(=O)N1 (stereo not shown) [GT-06329, 2-(6,7-dihydro-5H-pyrrolo[1,2-c]imidazol-1-yl)-2-(6-(4-(4-(1-((5-(2,4-dioxotetrahydropyrimidin-1(2H)-yl)pyridin-2-yl)methyl)piperidin-4-yl)piperazin-1-yl)phenyl)-4-fluoro-1-oxoisoindolin-2-yl)-N-(thiazol-2-yl)acetamide] | A (A is defined as 0% ≤ substrate protein remaining % ≤ 80%) |
| 8.00 to 9.00 | O=C1CCN(c2ccc(CN3CCN(C4CCN(c5ccc(-c6cc(F)c7c(c6)C(=O)N(C(C(=O)Nc6nccs6)c6ncn8c6CCC8)C7)cc5)CC4)CC3)nc2)C(=O)N1 (stereo not shown) [GT-06246, 2-(6,7-dihydro-5H-pyrrolo[1,2-c]imidazol-1-yl)-2-(6-(4-(4-(4-((5-(2,4-dioxotetrahydropyrimidin-1(2H)-yl)pyridin-2-yl)methyl)piperazin-1-yl)piperidin-1-yl)phenyl)-4-fluoro-1-oxoisoindolin-2-yl)-N-(thiazol-2-yl)acetamide] | A (A is defined as 0% ≤ substrate protein remaining % ≤ 80%) |
| 8.00 to 9.00 | O=C1CCN(c2ccc(CN3CCN(c4ccc(-c5cc(F)c6c(c5)C(=O)N(C(C(=O)Nc5nccs5)c5ncn7c5CCC7)C6)cc4)CC3)cn2)C(=O)N1 (stereo not shown) [GT-06166, 2-(6,7-dihydro-5H-pyrrolo[1,2-c]imidazol-1-yl)-2-(6-(4-(4-((6-(2,4-dioxotetrahydropyrimidin-1(2H)-yl)pyridin-3-yl)methyl)piperazin-1-yl)phenyl)-4-fluoro-1-oxoisoindolin-2-yl)-N-(thiazol-2-yl)acetamide] | A (A is defined as 0% ≤ substrate protein remaining % ≤ 80%) |
| 8.00 to 9.00 | O=C1CCN(c2ccc(CN3CCN(C4CCN(c5ccc(-c6cc(F)c7c(c6)C(=O)N(C(C(=O)Nc6nccs6)c6ncn8c6CCC8)C7)cc5)CC4(F)F)CC3)nc2)C(=O)N1 (stereo not shown) [GT-06319, 2-(6,7-dihydro-5H-pyrrolo[1,2-c]imidazol-1-yl)-2-(6-(4-(4-(4-((5-(2,4-dioxotetrahydropyrimidin-1(2H)-yl)pyridin-2-yl)methyl)piperazin-1-yl)-3,3-difluoropiperidin-1-yl)phenyl)-4-fluoro-1-oxoisoindolin-2-yl)-N-(thiazol-2-yl)acetamide] | A (A is defined as 0% ≤ substrate protein remaining % ≤ 80%) |
| 8.00 to 9.00 | O=C1CCN(c2cccc(CN3CCN(c4ccc(-c5cc(F)c6c(c5)C(=O)N(C(C(=O)Nc5nccs5)c5ncn7c5CCC7)C6)cc4)CC3)c2)C(=O)N1 (stereo not shown) [GT-06165, 2-(6,7-dihydro-5H-pyrrolo[1,2-c]imidazol-1-yl)-2-(6-(4-(4-(3-(2,4-dioxotetrahydropyrimidin-1(2H)-yl)benzyl)piperazin-1-yl)phenyl)-4-fluoro-1-oxoisoindolin-2-yl)-N-(thiazol-2-yl)acetamide] | A (A is defined as 0% ≤ substrate protein remaining % ≤ 80%) |
| 8.00 to 9.00 | O=C1CCN(c2cccc(CN3CCN(C4CCN(c5ccc(-c6cc(F)c7c(c6)C(=O)N(C(C(=O)Nc6nccs6)c6ncn8c6CCC8)C7)cc5)CC4)CC3)c2)C(=O)N1 (stereo not shown) [GT-06245, 2-(6,7-dihydro-5H-pyrrolo[1,2-c]imidazol-1-yl)-2-(6-(4-(4-(4-(3-(2,4-dioxotetrahydropyrimidin-1(2H)-yl)benzyl)piperazin-1-yl)piperidin-1-yl)phenyl)-4-fluoro-1-oxoisoindolin-2-yl)-N-(thiazol-2-yl)acetamide] | A (A is defined as 0% ≤ substrate protein remaining % ≤ 80%) |
